One test has as its target T1, human GLP-1 receptor (Homo sapiens, UniProt P43220).
T1 construct: expressed in transfected cells; host or cells: CHO K1 (CHO 6CRE GLP1R)
As to the kind of experiment: GLP-1 receptor binding assay (GLP-1R BA), CHO 6CRE GLP1R luciferase reporter cells. It counts as cell-based. How it is done:
Fusions were buffer exchanged into 100 mM […], 20 mM citrate pH 6.2. […] Suspension culture was maintained for 24 hours. Cells were then diluted into 15 mM HEPES buffer (obtainable from Sigma), containing 2 mM L glutamine (2.5×10^5 cells/ml) and dispensed into 384-well plates containing 10 ul/well of the compound to be assayed. After the addition of assay control, plates were returned to the incubator for 3 h at 37° C. and 5% CO2. After the incubation, steady glo luciferase substrate (obtainable from Promega) was added to the wells as described in the kit and the plates sealed with self-adhesive plate seals (Weber Marking Systems Inc. Cat. No. 607780). Plates were placed in the reader (Viewlux, Perkin Elmer) and pre-incubated for 5 minutes prior to reading the […] and plotting of results. Compound was assayed at a range of concentrations in the presence and absence of 10 uM albumin, allowing a dose response curve to be fitted with and without the albumin.
(In a reporter assay the amount or activity of a reporter protein is the signal.)

The next test concerns cynomolgus monkey. As to the kind of experiment: PD in cynomolgus monkey: biscuit consumption. Format: in vivo, cynomolgus monkey (Macaca fascicularis). From the text:
Protein was extensively QCed (including SDS-PAGE, mass spec, activity assay:GLP-1R-BA, pH check, osmolarity check), filter sterilised and endotoxin removed. Protein with confimed low endotoxin (<0.05 EU/mg protein) was then used for the in vivo study. Six female cynomolgus monkeys (Macaca fascicularis; Charles River Laboratories BRF, Houston, Tex., Primate Products, Miami, Fla. and/or Covance Research Products, Inc., Alice, Tex.) were used in this study. The monkeys were approximately 2 to 9 years old (with a body weight range of approximately 2 to 5 kilograms) at initiation of dosing. The monkeys were housed individually in stainless-steel cages in an environmentally controlled room(s) (64 F to 84 F; 30 to 70% relative humidity) with a 12-hour light/dark cycle. The female monkeys were offered approximately 6 biscuits twice daily of Monkey Diet #5038 (PMI Nutrition International, Richmond, Ind.) and a daily allotment of fresh fruit. […] Dose was at 0.1 mg/Kg. On the days of dosing, the first feeding occurred within approximately 1 hour post dose for each monkey (extended up to 2.5 hours post dose if study-related procedures required animals to be out of their local housing for an extended period of time). The second feeding was no sooner then two hours following the first feeding. For the purpose of environmental enrichment, additional fruit, legume and/or vegetable (e.g., grapes, baby carrots, peanuts) was provided to each monkey at or around the time of viability check or as a method of reward after acclimation or study-related procedures. Filtered tap water (supplied by Aqua Pennsylvania, Inc. and periodically analyzed) was available ad libitum. Plasma samples (approx 2 ml) were collected from the femoral vessel at predose (0 hour) and nominally at 5 minutes (iv group only), 0.5, 4, 8, 24, 48, 96, 144, 192, 288, 336, 504 and 672 hours after dosing. (PK samples from one of the animals in the iv dose group were only collected to 24 h so this animal has been excluded from the PK fitting). Analysis of samples was by mass spectrometry, and fitting of the data was using WinNonLin fitting software. PK parameters were as follows for iv administration (n=2): T1/2 67 h, MRT 46 h, Vz 327 ml/Kg and Cl 3.3 ml/hr/Kg; and for sc administration (n=3): T1/2 68 h, MRT 98 h, Vz 306 ml/Kg and Cl 3.1 ml/hr/Kg. Bioavailability was calculated as 99%. A PK study was conducted in cynomolgus monkey as described above. The principal aim of this study was to determine the pharmacokinetic parameters for DAT0115 in cynomolgus monkey (as described in the previous example), but a secondary aim was to obtain an indication of the efficacy of the DAT0115 compound in the monkeys (without sufficient power in the study for statistical significance). To achieve this secondary aim, biscuit consumption by the monkeys was monitored during the course of the study.

Values joined by “and” are separate entries in the source; they are usually repeats but may differ in a detail not shown here. Equal entries are not always repeated. Where two headings read alike, the source gives them in different places.

T1 sequence (P43220 24-463): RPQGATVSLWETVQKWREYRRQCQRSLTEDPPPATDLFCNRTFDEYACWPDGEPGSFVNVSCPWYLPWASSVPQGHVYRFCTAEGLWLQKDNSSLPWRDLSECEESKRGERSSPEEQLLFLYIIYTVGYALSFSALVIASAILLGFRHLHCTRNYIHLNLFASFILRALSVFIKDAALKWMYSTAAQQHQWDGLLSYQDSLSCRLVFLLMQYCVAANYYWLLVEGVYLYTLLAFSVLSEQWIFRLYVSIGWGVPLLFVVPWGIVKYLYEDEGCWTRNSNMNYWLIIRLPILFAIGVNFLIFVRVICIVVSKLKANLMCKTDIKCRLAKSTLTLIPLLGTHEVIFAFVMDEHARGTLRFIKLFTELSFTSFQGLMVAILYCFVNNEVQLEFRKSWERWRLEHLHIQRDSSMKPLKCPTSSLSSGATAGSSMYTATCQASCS

Turning to “Exendin 4 (G4S linker)3 DOM7h-14 dAb fusion [DAT0115]”, the EC50 worked out at 35 pM with human GLP-1 receptor (read-out: GLP-1R BA (10 uM albumin) EC50 (pM) n = 2, presence of 10 uM albumin) and 8.9 pM in the test with human GLP-1 receptor (read-out: GLP-1R BA EC50 (pM) n = 3, absence of albumin). For the same substance, the Biscuits consumed daily in the test on cynomolgus monkey (0.1 mg/Kg (iv), Day 1 (dosing day), individual monkey) was 0 (2×) and 6; with cynomolgus monkey (0.1 mg/Kg (iv), Day 2, individual monkey) it was 0 and 3 and 1; in the test with cynomolgus monkey (0.1 mg/Kg (iv), Day 3, individual monkey), 0 (2×) and 9; in the test with cynomolgus monkey (0.1 mg/Kg (iv), Day 4, individual monkey), 0 and 12 and 4; in the test on cynomolgus monkey (0.1 mg/Kg (iv), Day 5, individual monkey), 1 and 12 and 6; with cynomolgus monkey (0.1 mg/Kg (iv), Day 6, individual monkey) it was 6 and 12 and 10. In addition, the Biscuits consumed daily is 6 and 12 and 11 in the test with cynomolgus monkey (0.1 mg/Kg (iv), Day 7, individual monkey); 12 in the test with cynomolgus monkey (0.1 mg/Kg (iv), Day −1 (pre-dose), individual monkey); 12 with cynomolgus monkey (0.1 mg/Kg (iv), Day −2 (pre-dose), individual monkey); 5 and 12 and 11 in the test with cynomolgus monkey (0.1 mg/Kg (sc), Day 1 (dosing day), individual monkey); 0 (2×) and 12 with cynomolgus monkey (0.1 mg/Kg (sc), Day 2, individual monkey); 4 and 2 and 11 in the test on cynomolgus monkey (0.1 mg/Kg (sc), Day 3, individual monkey). The Biscuits consumed daily in the test with cynomolgus monkey (0.1 mg/Kg (sc), Day 4, individual monkey) is 11 and 12 (2×); in the test on cynomolgus monkey (0.1 mg/Kg (sc), Day 5, individual monkey), 7 and 12 and 8; in the test on cynomolgus monkey (0.1 mg/Kg (sc), Day 6, individual monkey), 11 and 12 (2×); in the test with cynomolgus monkey (0.1 mg/Kg (sc), Day 7, individual monkey), 12; with cynomolgus monkey (0.1 mg/Kg (sc), Day −1 (pre-dose), individual monkey) it was 12; in the test on cynomolgus monkey (0.1 mg/Kg (sc), Day −2 (pre-dose), individual monkey) it was 12. In the test with cynomolgus monkey (0.1 mg/Kg iv or sc, all monkeys, not powered for significance), the “food consumption in the days following dosing” value is given as “trend towards reduction in food consumption”.

Usually EC50 stands for the concentration needed to bring the measured effect to its halfway point.
